Measurements taken from patent US5202312A, “Imidazole-containing peptides having immunomodulatory activity” (Tanabe Seiyaku Co., Ltd., priority 1988, dated 1993).
Where a SMILES comes first, the peptide text is derived from it.

What was measured:
[1] = Immunomodulatory effect (general statement, no method)
[2] = tested on: picryl chloride-induced delayed type hypersensitivity; test: Inhibitory effect on picryl chloride-induced delayed type hypersensitivity (ear swelling); format: in vivo; settings: BALB/C female mice, oral, once a day for 7 days, dose 10 mg/kg
Protocol: EXPERIMENT 2 Inhibitory effect on picryl chloride-induced delayed type
BALB/C female mice (10-week-old) were sensitized by spreading one ml of an ethanol solution containing 7 w/v % of picryl chloride to abdominal skin of the mice. In a "test group", a test compound was administered orally to the mice a day for 7 days from the day of sensitization.
7 Days after the sensitization, 10 μl of an olive oil solution containing 1 w/v % of picryl chloride was spread to both side skin of left external ear. 24 Hours later, the mice was sacrificed and the thickness of both ears was immediately measured.
The inhibition (%) of swelling of exterernal ear was calculated according to the following formula: [formula]

SMILES | immunomodulatory effect [1] | Inhibition (%) of swelling of external ear [2] [%]
COC(=O)[C@H](Cc1c[nH]cn1)NC(=O)[C@H](Cc1ccccc1)NC(=O)[C@H](Cc1ccccc1)NC(C)=O [N-acetyl-L-phenylalanyl-L-phenylalanyl-L-histidine methyl ester] (Ac-Phe-Phe-His-OMe) | scarcely an immunomodulatory effect | –
COC(=O)[C@H](Cc1c[nH]cn1)NC(=O)[C@H](Cc1ccccc1)NC(=O)N(Cc1ccccc1)NC(=O)OC(C)(C)C [Example 13, 3-tert-butoxycarbonyl-2-benzylcarbazoyl-L-phenylalanyl-L-histidine methyl ester] | – | 72.6
